“Also recorded” adds a separate entry of the source.
How the values were obtained:
[1] = test system: STAMP2; assay: Western blot of STAMP2 protein in articular chondrocytes; type: cell-based, rat; details: n=4
Experimental: (§1) Rat articular chondrocytes for primary culture were isolated from knee joint cartilage slices by enzymatic digestion for 1 h with 0.2% type II collagenase (381 units/mg) in DMEM. After the isolated cells were collected by brief centrifugation, they were resuspended in DMEM supplemented with 10% (v/v) FBS, […] streptomycin and 50 units/ml penicillin (Gibco). The cells were plated on culture dishes at a density of 5×10^4 cells/cm^2. The medium was replaced every 2 days, and they reached confluence after approximately 5 days in culture. In each experiment, the cells from three animals were pooled and analyzed three times. FFA were dissolved in absolute ethanol at a concentration of 500 mM and diluted to final concentrations of FFAs with the appropriate concentration of 1% (w/v) FFA-free BSA. Controls were incubated with equal concentrations of FFA-free BSA containing ethanol. […] Cell (2×10^6) were washed twice with ice-cold PBS. Cells were resuspended in lysis buffer [200 ll of icecold solubilizing buffer (300 mM NaCl, 50 mM Tris-Cl (pH 7.6), 0.5% Triton X-100, protease inhibitor cocktail)] and incubated at 4° C. for 30 min. The lysates were centrifuged at 14,000 rpm for 20 min at 4° C. The protein concentrations of the cell lysates were measured with the Bradford protein assay reagent (Bio-Rad). Then, 50 μg of proteins was loaded onto 15 SDS-PAGE. The separated proteins were transferred to nitrocellulose membranes (Amersham Pharmacia Biotech, Piscataway, N.J., USA) and probed with each antibody. Immunostaining with the antibodies was carried out using the Super Signal West Pico enhanced chemiluminescence substrate and detected with LAS-3000PLUS.

[2] = test system: rat articular chondrocytes; assay: Cell viability assay (automated trypan blue exclusion); type: cell-based; details: n=4
Experimental: Rat articular chondrocytes for primary culture were isolated from knee joint cartilage slices by enzymatic digestion for 1 h with 0.2% type II collagenase (381 units/mg) in DMEM. After the isolated cells were collected by brief centrifugation, they were resuspended in DMEM supplemented with 10% (v/v) FBS, […] streptomycin and 50 units/ml penicillin (Gibco). The cells were plated on culture dishes at a density of 5×10^4 cells/cm^2. The medium was replaced every 2 days, and they reached confluence after approximately 5 days in culture. In each experiment, the cells from three animals were pooled and analyzed three times.
FFA were dissolved in absolute ethanol at a concentration of 500 mM and diluted to final concentrations of FFAs with the appropriate concentration of 1% (w/v) FFA-free BSA. Controls were incubated with equal concentrations of FFA-free BSA containing ethanol. To examine the effect of several chemicals, cells were pretreated with 150 μg/mL DRB or 30 μM cilostazol for 24 h or 25 ng/ml TNF-α for 3 h before FFA treatment.
siRNA transfection or combination treatment with FFAs. Transfection of siRNA was performed with the use of siPORT Amine and Opti-MEM media. Cells grown to a confluence of 40% to 50% in six-well plates were transfected with 100 nM final siRNA concentration per well. Transfection mixture was added to each well, and incubation occurred for 4 h. Then 2 ml of growth medium was added, and cells were incubated for another 20 h. After siRNA transfection medium was removed, each well was washed in PBS solution. Cells were treated with FFAs for 24 hours.
Recombinant adenoviral STAMP2 was prepared as described previously34. Cells (1×10^7) were infected with recombinant adenoviral STAMP2 at multiplicities of infection (MOI) of 500, 1000 and 1500 to the medium.
An automated trypan blue exclusion assay was undertaken. Total cells and trypan bluestained (i.e., nonviable) cells were counted, and the percentage of nonviable cells was calculated using the Vi-Cell cell counter (Beckman Coulter, Miami, Fla., USA).

[3] = test system: lipid droplets (LD) in rat articular chondrocytes; assay: Lipid droplet staining (Nile red, BODIPY), confocal microscopy and quantification; type: cell-based
Experimental: Rat articular chondrocytes for primary culture were isolated from knee joint cartilage slices by enzymatic digestion for 1 h with 0.2% type II collagenase (381 units/mg) in DMEM. After the isolated cells were collected by brief centrifugation, they were resuspended in DMEM supplemented with 10% (v/v) FBS, […] streptomycin and 50 units/ml penicillin (Gibco). The cells were plated on culture dishes at a density of 5×10^4 cells/cm^2. The medium was replaced every 2 days, and they reached confluence after approximately 5 days in culture. In each experiment, the cells from three animals were pooled and analyzed three times. FFA were dissolved in absolute ethanol at a concentration of 500 mM and diluted to final concentrations of FFAs with the appropriate concentration of 1% (w/v) FFA-free BSA. Controls were incubated with equal concentrations of FFA-free BSA containing ethanol. […] Cells cultured on a coverslip were incubated with diluted Nile red or BODIPY 493/503. Some sections were double-labelled with TUNEL and BODIPY 493/503 and counterstained with Hoechst 33342. Fluorescence images were observed and analyzed using a Zeiss LSM 510 laser-scanning confocal microscope (Goettingen, Germany). Twenty cells from each experiment were observed and auantification of fluorescence intensity of the confocal images were obtained with the use of ImageJ software. Fluorescence intensity was expressed as AU.

[4] = test system: rat articular chondrocytes; assay: Phase contrast microscopy of oleate-induced cell death; type: cell-based; details: 25 ng/ml TNF-α, 1.5 mM oleate; n=4
[5] = test system: caspase-3 and -7; assay: Western blot of apoptosis-related factors (caspase-3 and -7 activation); type: cell-based, rat; details: 100 μM DRB with 1 mM oleate; n=4
Experimental: as §1, with “The lysates were centrifuged at 14,000 rpm for 20 min at 4° C.” left out, “Then, 50 μg of proteins was loaded onto 15 SDS-PAGE. The separated proteins were transferred to nitrocellulose membranes (Amersham Pharmacia Biotech, Piscataway, N.J., USA) and probed with each antibody.” left out

[6] = test system: rat articular chondrocytes; assay: Total cytosol FFA content measurement; type: cell-based
Experimental: Cell were collected after treatment with trypsin (0.2% trypsin, 0.02% EDTA and 0.2% glucose in PBS) and pelleted by centrifugation (200×g for 5 min at 4° C.). Cell pellet was resuspended in ice-cold hypotonic lysis medium containing 20 mM Tris-HCl, pH 7.4 and 1 mM EDTA. Cells were homogenized with a Dounce homogenizer and then centrifuged (800×g for 5 min at 4° C.). The post-nuclear supernatant fraction was ultra-centrifuged ([…] for 5 min at 4° C.) using Beckman Table-top ultracentrifuge. LD fraction with the distinct white band on the preparation was removed with a pipetman and LD-free cytosol was used for FFA measurement. Cytosol FFA levels were measured using a commercial free fatty acid quantification kit from Abcam (ab65341).

[7] = test system: FSP27; assay: Western blot of FSP27 protein in articular chondrocytes; type: cell-based, rat; details: n=4
Experimental: as §1

Compound: CCCCCCCCCCCCCCCCCC(=O)O [stearate, stearic acid]
- expression level of STAMP2 ([1]; FFA at toxic concentrations): reduced the expression level of STAMP2
- cell viability ([2]; FFA alone at 0.5 to 2 mM): significantly reduced cell viability

Compound: TNF-α
- effect on oleate-induced downregulation of STAMP2 protein ([1]; 25 ng/ml TNF-α, 1.5 mM oleate): completely reversed the 1.5 mM oleate-induced downregulation of the expression level of STAMP2 protein; also recorded: reversed 1.5 mM oleate (0)-induced downregulation of STAMP2 protein
- effect on oleate-induced reduction of LD size and total LD volume ([3]; TNF-α, 1.5 mM oleate): completely reversed the 1.5 mM oleate-induced reduction in total LD volume; also recorded: reversed 1.5 mM oleate-induced reduction of LD size and total LD volume
- effect on oleate-induced cell death (viability) ([2]; 25 ng/ml TNF-α, 1.5 mM oleate): completely reversed 1.5 mM oleate-induced cell death; also recorded: prevented 1.5 mM oleate-induced cell death
- effect on oleate-induced cell death (phase contrast microscopy) [4]: prevented oleate-induced cell death

Compound: OC[C@H]1O[C@@H](n2cnc3cc(Cl)c(Cl)cc32)[C@H](O)[C@@H]1O [DRB, 5,6-dichlorobenzimidazol riboside]
- expression level of STAMP2 ([1]; DRB): decreased
- LD accumulation ([3]; DRB in cells treated with 0.4 mM oleate and 0.6 mM palmitate): significantly reduced the LD accumulation
- LD size and LD accumulation ([3]; DRB pre-/co-treatment, 1 mM oleate): reversed oleate-induced LD enlargement; also recorded: reduces LD size and LD accumulation
- total LD volume ([3]; co-treatment with DRB versus 1 mM oleate, n=4): significantly decreased
- influence on lipotoxicity of oleate/palmitate combination (viability) ([2]; 0.4 mM oleate with 0.6 or 1.6 mM palmitate): reciprocal influences on lipotoxicity
- activation of caspase-7 and -3 [5]: activated caspase-7 and -3
- FFA level in the cytosol ([6]; 1.0 mM oleate with DRB versus without): significantly increased the FFA level in the cytosol
- FFA level in the cytosol ([6]; cells treated with 0.6 mM palmitate and 0.4 mM oleate, n=4): significantly increased the FFA level in the cytosol
- level of FSP27 protein ([7]; 100 μM DRB with 1 mM oleate): decreased the levels of FSP27 protein
- expression level of FSP27 ([7]; DRB): decreased

Compound: zVAD-fmk
- effect on oleate-induced cell death (viability) ([2]; zVAD-fmk with 1.5 mM oleate): significantly prevented 1.5 mM oleate-induced cell death
